Reference: patent US8431540B2, “Modified lysine-mimetic compounds” (Zealand Pharma A/S, priority 2005, dated 2013)

Assays:
Male CD-1 mice = test: Calcium-induced arrhythmia model (time to AV block after CaCl2 infusion); type: in vivo; conditions: compound IV 3 min before CaCl2 infusion (100 mg/kg/min), saline control 62-78
Experimental: Peptides suitable for administration to cardiac cells can be identified in an in vivo model of calcium-induced arrhythmias according to the model of Lynch et al. (1981) J Cardiovasc. Pharmacol. 3: 49-60. Male CD-1 mice are anaesthetized with Ketamine (75 mg/kg) and medetomidine (1 mg/kg) IP. An i.v. cannula is inserted into the tail vein. A lead II ECG signal is recorded continuously by positioning stainless steel ECG electrodes on the right forelimb and […]. The ground electrode is placed on the right hind limb. The signal is amplified and filtered using Gould physiograph components and po-ne-mah data acquisition software. After a 90 sec equilibration period test compound is injected into the tail vein (over 30 seconds). Mice pre-treated with vehicle are tested as control animals. The injection volume is 100 μl/30 g mice in all experiments. Infusion of CaCl2 (30 mg/mL, 0.1 mL/min/30 g mice, 100 mg/kg/min) is started 3 min after IV administration of drug or vehicle (0.9% saline). The time lag to onset of cardiac conduction block is determined as the time from the start of CaCl2 infusion until the first arrhythmic event occurred. The first conduction block is defined as the first RR-interval, larger than or equal to 3 times one RR-interval from the pre-treatment period. The first arrhythmic event occurring is either a second degree AV-block (intermittent failure of the AV conduction characterized by a P-wave without the concomitant QRS complex) or a second degree SA block (prolonged RR-interval and a QRS-complex without a preceding P-wave). Responses are expressed relative to the time until 2nd degree AV-block occurred in vehicle treated mice.
The anti-arrhythmic effect of compounds according to the present teachings was tested in a model of calcium-induced arrhythmias according to the model of Lynch et al., J. Cardiovasc. Pharmacol. (1981), 3: 49-60. Male CD-1 mice were anaesthetized with Ketamine (75 mg/kg) and medetomidine (1 mg/kg) IP. An i.v. cannula was inserted into the tail vein. A lead II ECG signal was recorded continuously by positioning stainless steel ECG electrodes on the right forelimb and […]. The ground electrode was placed on the right hind limb. The signal was amplified and filtered using Gould physiograph components and po-ne-mah data acquisition software. After a 90 sec equilibration period test compound was injected into the tail vein (over 30 seconds). Mice pre-treated with vehicle (0.9% saline) were tested as control animals. The injection volume was 100 μl/30 g mice in all experiments. Infusion of CaCl2 (30 mg/mL, 0.1 mL/min/30 g mice, 100 mg/kg/min) was started 3 min after IV administration of drug or vehicle. The time lag to onset of cardiac conduction block was determined as the time from the start of CaCl2 infusion until the first arrhythmic event occurred. The first conduction block was defined as the first RR-interval, larger/or equal to, 3 times one RR-interval from the pre-treatment period. The first arrhythmic event occurring was either a second degree AV-block (intermittent failure of the AV conduction characterized by a P-wave without the concomitant QRS complex) or a second degree SA block (prolonged RR-interval and a QRS-complex without a preceding P-wave).
Mice pre-treated with vehicle (0.9% saline) were tested on all days as a measure for control level in untreated animal. Injection volume was 100 μL in all experiments. The time lag to onset of arrhythmias was determined as the time from the start of CaCl2 infusion until the first event of conduction block defined as intermittent failure of the SA or AV conduction characterized by delayed P-wave activation (SA block) or by a P-wave without the concomitant QRS complex (AV block). The time lag to onset of AV block is given below in Table 2.

[1] = Metabolic stability assay (liver microsomes); conditions: male, rat
Experimental: To predict the stability of the compound under first pass (Phase I) metabolism, compounds of the present teachings were incubated with male rat liver microsomes at 1 μM concentration and 0.5 mg/mL protein concentration at 37° C. After 15 min, the reaction was quenched with cold acetonitrile. The solution was centrifuged and the supernatant was analyzed with LC-MS using the HPLC conditions described in section 3 above.

Plasma stability assay = conditions: male rat plasma (1:1 plasma:pH 7.4 buffer), 1 μM, 37° C., 3 hours
Experimental: To predict its plasma stability, compounds of the present teachings were incubated in male rat plasma (1:1 plasma:pH 7.4 buffer) at 1 μM concentration at 37° C. After 3 hours, the reaction was quenched with cold acetonitrile. The solution was centrifuged and the supernatant was analyzed with LC-MS using the following HPLC conditions: Thermo Hypersil-Keystone Aquasil C18 column (50 mm×2.1 mm, 5 μM) at ambient temperature; Solvent A: 0.1% formic acid in water; Solvent B: 0.1% formic acid in acetonitrile; solvent gradient: 100% A to 50% A over 2.5 min, to 10% A over 1.5 min, and returning to 100% A and re-equilibrating for 1.5 min; flowrate: 0.8 mL/min. The percent of the compound remaining was calculated by dividing the 3-hour incubation sample LC-MS signal area counts by the time=0 area counts.

half-life at 1 μM [1] [min]	% Remaining (Plasma stability assay) [%]	SMILES	Time to AV block (Male CD-1 mice) [s]	half-life in male rat liver microsomes
		NC(CCC(=O)O)C(=O)N1C[C@H](NC(=O)c2ccccc2)C[C@H]1C(=O)O (stereo partly drawn) [Compound 6, (2S,4R)1-(2-Amino-4-carboxy-butyryl)-4-benzoylamino-pyrrolidine-2-carboxylic acid]	117.9	
		NCC(=O)Nc1cc(NC(=O)c2ccccc2)cc(C(=O)O)c1 [Compound 26, 3-(2-Amino-acetylamino)-5-benzoylamino-benzoic acid]	122.8	
		O=C(N[C@@H]1C[C@@H](C(=O)O)N(C(=O)CO)C1)c1ccccc1 [Compound 52, (2S,4R) 4-Benzoylamino-1-(2-hydroxy-acetyl)-pyrrolidine-2-carboxylic acid]	135.6	
		O=C(CO)Nc1cc(NC(=O)c2ccccc2)cc(C(=O)O)c1 [Compound 54, 3-Benzoylamino-5-(2-hydroxy-acetylamino)-benzoic acid]	121.7	
		NC(=O)C1N(C(=O)CO)CCN1C(=O)c1ccccc1 (stereo not drawn) [Compound 56, 1-Benzoyl-3-(2-hydroxy-acetyl)-imidazolidine-2-carboxylic acid amide]	128.1	
> 30	27	NCC(=O)N1C[C@H](NC(=O)c2ccccc2)C[C@H]1C(N)=O [Compound 64, (2S,4R) 1-(2-aminoacetyl)-4-benzamidopyrrolidine-2-carboxamide]	111.7	
> 30	87	CNC(=O)[C@@H]1C[C@@H](NC(=O)c2ccccc2)CN1C(=O)CN [Compound 65, (2S,4R) 1-(2-aminoacetyl)-4-benzamido-N-methylpyrrolidine-2-carboxamide]	115.2	
> 30	100	CCNC(=O)[C@@H]1C[C@@H](NC(=O)c2ccccc2)CN1C(=O)CN [Compound 66, (2S,4R) 1-(2-aminoacetyl)-4-benzamido-N-ethylpyrrolidine-2-carboxamide]	122.7	
> 30	100	CC(C)NC(=O)[C@@H]1C[C@@H](NC(=O)c2ccccc2)CN1C(=O)CN [Compound 67, (2S,4R) 1-(2-aminoacetyl)-4-benzamido-N-isopropylpyrrolidine-2-carboxamide]	134.4	
> 30	96	NCC(=O)N1C[C@H](NC(=O)c2ccccc2)C[C@H]1C(=O)NC1CC1 [Compound 68, (2S,4R) 1-(2-aminoacetyl)-4-benzamido-N-cyclopropylpyrrolidine-2-carboxamide]	143.8	
		CC(C)(C)OC(=O)NCC(=O)N1C[C@H](NC(=O)c2ccccc2)C[C@H]1C(N)=O [Compound 69, (2S,4R) 4-benzamido-1-(2-(tert-butoxycarbonylamino)acetyl) pyrrolidine-2-carboxamide]		greater than 30 minutes
> 30	93	CCC(CC)NC(=O)[C@@H]1C[C@@H](NC(=O)c2ccccc2)CN1C(=O)CN [Compound 70, (2S,4R) 1-(2-aminoacetyl)-4-benzamido-N-(pentan-3-yl)pyrrolidine-2-carboxamide]		
> 30	90	NCC(=O)N1C[C@H](NC(=O)c2ccccc2)C[C@H]1C(=O)NC1CCCC1 [Compound 71, (2S,4R) 1-(2-aminoacetyl)-4-benzamido-N-cyclopentylpyrrolidine-2-carboxamide]		
> 30	88	CC(C)CNC(=O)[C@@H]1C[C@@H](NC(=O)c2ccccc2)CN1C(=O)CN [Compound 72, (2S,4R) 1-(2-aminoacetyl)-4-benzamido-N-isobutylpyrrolidine-2-carboxamide]		
> 30	95	NCC(=O)N1C[C@H](NC(=O)c2ccccc2)C[C@H]1C(=O)NC1CCC1 [Compound 73, (2S,4R) 1-(2-aminoacetyl)-4-benzamido-N-cyclobutylpyrrolidine-2-carboxamide]		
> 30	100	CC(=O)NCC(=O)N1C[C@H](NC(=O)c2ccccc2)C[C@H]1C(=O)O [Compound 80, (2S,4R) 1-(2-acetamidoacetyl)-4-benzamidopyrrolidine-2-carboxylic acid]	111.5	
> 30	100	CNCC(=O)N1C[C@H](NC(=O)c2ccccc2)C[C@H]1C(=O)O [Compound 81, (2S,4R) 4-benzamido-1-(2-(methylamino)acetyl)-pyrrolidine-2-carboxylic acid]	123.2	
> 30	34	O=C(N[C@@H]1C[C@@H](C(=O)O)N(C(=O)CNC(=O)C(F)(F)F)C1)c1ccccc1 [Compound 82, (2S,4R) 4-benzamido-1-(2-(2,2,2-trifluoroacetamido)acetyl)pyrrolidine-2-carboxylic acid]	113.8	
> 30	100	CN(C)CC(=O)N1C[C@H](NC(=O)c2ccccc2)C[C@H]1C(=O)O [Compound 84, (2S,4R) 4-benzamido-1-(2-(dimethylamino)acetyl)pyrrolidine-2-carboxylic acid]	108.8	
	107	O=CNCC(=O)N1C[C@H](NC(=O)c2ccccc2)C[C@H]1C(=O)O [Compound 85, (2S,4R) 4-benzamido-1-(2-formamidoacetyl)pyrrolidine-2-carboxylic acid]		

SMILES	half-life at 1 μM [1] [min]	% Remaining (Plasma stability assay) [%]	Time to AV block (Male CD-1 mice) [s]	half-life in male rat liver microsomes
CC(C)(C)OC(=O)NCC(=O)N1C[C@H](NC(=O)c2ccccc2)C[C@H]1C(=O)O [Compound 83, (2S,4R) 4-benzamido-1-(2-(tert-butoxycarbonylamino)acetyl) pyrrolidine-2-carboxylic acid]	> 30	100	110.9	
